Data published in US20040209799A1, “JAK/STAT pathway inhibitors and the uses thereof” (priority 2000, published 2004).

Experiments:
Type in all cases: biochemical
[1] = molecular target: IGFR (Insulin-like growth factor receptor) protein tyrosine kinase (Homo sapiens, UniProt P08069); assay: poly (Glu, Tyr) 4:1 ELISA, IGFR
Protocol: (§1) To further examine the inhibition characteristics of DBH (and its variants) to a variety of cellular components, a poly (Glu, Tyr) 4:1 ELISA was performed. Hymenialdisine (H), DBH (as marine sponge extracts: see Chipman and Faulkner, 1997), and three variant forms of synthetic DBH: the free base form of DBH (DBH-2FB), a trifluoroacetic acid salt form of DBH (DBH-2S), and a methanesulfonic acid salt form of DBH (DBH 1) were solubilized in DMSO, and tested for the ability to inhibit; ZAP-70 (ζ-associated polypeptide of 70 kDa) protein tyrosine kinase, BTK (Bruton's agarnrnaglobulinaemia tyrosine kinase), JAK3 (Janus kinase 3) protein tyrosine kinase, LCK (Lymphoid T-cell protein tyrosine kinase), and IGFR (Insulin-like growth factor receptor) protein tyrosine kinase.
(§2) Maxisorb microtiter plates (Nalge Nunc International, Rochester, N.Y.) were coated with 1 mg/ml Poly(Glu,Tyr) 4:1 (Sigma, St. Louis, Mo.) solubilized in phosphate buffered saline (PBS), 0.02% sodium azide. On the day of the assay, microtiter plates were washed 4× with TBS-Tween (25 mM Tris pH 8.0, 150 mM NaCl, 0.05% Tween 20) using a Skatron plate washer (Skatron Instruments, Sterling, Va.). 200 μl of sterile blocking buffer (3% BSA in PBS, 0.02% sodium azide) was added to each well, and the microtiter plates were incubated at 37° C. for 1 hour. The blocking buffer was removed, the plates washed, and various concentrations of inhibitor were added in a 20 μl volume to the wells. 60 μl of the appropriate substrate mix was then added. Substrate mixes were prepared as described in Table 2:
(§3) Following addition of the substrate mix, 20 μl of the test protein tyrosine kinase (in 1× assay buffer) was added. Kinase reactions were incubated 30 min at 37° C., followed by washes in the Skatron plate washer. 100 μl of biotinylated PT-66 anti-phosphotyrosine monoclonal antibody (Sigma, St. Louis, Mo.) (diluted 1:4000 in 0.5% BSA, sterile-filtered TBS) was added to each well, and incubated for an additional 30 minutes at 37° C. […] The samples were then read at 450 nm in a plate reader.

[2] = molecular target: T1, JAK3 (Janus kinase 3) protein tyrosine kinase (Homo sapiens, UniProt P52333); assay: poly (Glu, Tyr) 4:1 ELISA, JAK3; settings: inhibitors solubilized in DMSO, read-out: ec-50 (effective concentration for 50% inhibition) of JAK3
T1 sequence (P52333 1-1124): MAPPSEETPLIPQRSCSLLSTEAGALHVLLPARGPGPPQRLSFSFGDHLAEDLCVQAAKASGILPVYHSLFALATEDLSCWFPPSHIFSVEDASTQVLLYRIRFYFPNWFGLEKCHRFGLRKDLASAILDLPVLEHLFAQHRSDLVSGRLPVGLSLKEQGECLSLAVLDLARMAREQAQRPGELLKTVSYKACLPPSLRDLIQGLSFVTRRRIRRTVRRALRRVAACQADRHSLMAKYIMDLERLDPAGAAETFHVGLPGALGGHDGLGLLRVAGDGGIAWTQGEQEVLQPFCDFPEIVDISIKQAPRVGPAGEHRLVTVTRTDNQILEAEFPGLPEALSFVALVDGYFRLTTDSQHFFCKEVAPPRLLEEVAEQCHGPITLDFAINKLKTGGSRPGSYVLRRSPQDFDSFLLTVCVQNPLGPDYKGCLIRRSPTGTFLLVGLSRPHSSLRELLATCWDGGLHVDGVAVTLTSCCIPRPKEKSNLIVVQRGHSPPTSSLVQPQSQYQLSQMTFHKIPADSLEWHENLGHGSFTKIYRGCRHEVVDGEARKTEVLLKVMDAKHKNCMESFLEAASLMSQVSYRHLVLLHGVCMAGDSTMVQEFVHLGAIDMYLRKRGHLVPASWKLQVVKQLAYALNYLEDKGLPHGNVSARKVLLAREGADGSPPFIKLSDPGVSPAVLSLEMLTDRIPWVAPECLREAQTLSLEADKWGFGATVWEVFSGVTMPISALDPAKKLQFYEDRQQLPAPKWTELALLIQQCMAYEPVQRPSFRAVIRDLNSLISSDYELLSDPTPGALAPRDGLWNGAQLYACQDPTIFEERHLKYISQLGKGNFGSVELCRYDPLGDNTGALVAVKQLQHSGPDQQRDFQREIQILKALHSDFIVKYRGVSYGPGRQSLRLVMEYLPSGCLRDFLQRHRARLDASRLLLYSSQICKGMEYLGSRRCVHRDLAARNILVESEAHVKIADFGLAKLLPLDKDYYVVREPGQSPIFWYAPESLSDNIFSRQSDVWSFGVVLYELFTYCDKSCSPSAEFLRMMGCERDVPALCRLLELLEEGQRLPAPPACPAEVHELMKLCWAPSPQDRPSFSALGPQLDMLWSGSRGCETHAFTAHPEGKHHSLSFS
Protocol: as §1, §2, §3

[3] = molecular target: LCK (Lymphoid T-cell protein tyrosine kinase) (Homo sapiens, UniProt P06239); assay: poly (Glu, Tyr) 4:1 ELISA, LCK
Chain of LCK (Lymphoid T-cell protein tyrosine kinase) (P06239 whole entry, species assumed): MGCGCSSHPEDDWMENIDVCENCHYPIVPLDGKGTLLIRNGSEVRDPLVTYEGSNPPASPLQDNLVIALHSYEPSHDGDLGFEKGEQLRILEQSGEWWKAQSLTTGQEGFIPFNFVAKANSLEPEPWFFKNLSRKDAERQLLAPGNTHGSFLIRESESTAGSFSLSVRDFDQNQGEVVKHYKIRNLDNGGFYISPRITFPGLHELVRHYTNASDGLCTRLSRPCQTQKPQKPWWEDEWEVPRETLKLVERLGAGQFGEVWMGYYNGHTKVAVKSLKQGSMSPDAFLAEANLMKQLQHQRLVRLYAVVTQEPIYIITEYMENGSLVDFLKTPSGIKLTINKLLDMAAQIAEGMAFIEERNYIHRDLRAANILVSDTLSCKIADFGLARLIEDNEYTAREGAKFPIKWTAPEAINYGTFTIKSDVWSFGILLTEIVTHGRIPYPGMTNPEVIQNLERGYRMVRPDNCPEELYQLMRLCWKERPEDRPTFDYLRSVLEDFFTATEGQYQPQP
Protocol: as §1, §2, §3

[4] = molecular target: BTK (Bruton's agarnrnaglobulinaemia tyrosine kinase) (Homo sapiens, UniProt Q06187); assay: poly (Glu, Tyr) 4:1 ELISA, BTK
Chain of BTK (Bruton's agarnrnaglobulinaemia tyrosine kinase) (Q06187 whole entry, species assumed): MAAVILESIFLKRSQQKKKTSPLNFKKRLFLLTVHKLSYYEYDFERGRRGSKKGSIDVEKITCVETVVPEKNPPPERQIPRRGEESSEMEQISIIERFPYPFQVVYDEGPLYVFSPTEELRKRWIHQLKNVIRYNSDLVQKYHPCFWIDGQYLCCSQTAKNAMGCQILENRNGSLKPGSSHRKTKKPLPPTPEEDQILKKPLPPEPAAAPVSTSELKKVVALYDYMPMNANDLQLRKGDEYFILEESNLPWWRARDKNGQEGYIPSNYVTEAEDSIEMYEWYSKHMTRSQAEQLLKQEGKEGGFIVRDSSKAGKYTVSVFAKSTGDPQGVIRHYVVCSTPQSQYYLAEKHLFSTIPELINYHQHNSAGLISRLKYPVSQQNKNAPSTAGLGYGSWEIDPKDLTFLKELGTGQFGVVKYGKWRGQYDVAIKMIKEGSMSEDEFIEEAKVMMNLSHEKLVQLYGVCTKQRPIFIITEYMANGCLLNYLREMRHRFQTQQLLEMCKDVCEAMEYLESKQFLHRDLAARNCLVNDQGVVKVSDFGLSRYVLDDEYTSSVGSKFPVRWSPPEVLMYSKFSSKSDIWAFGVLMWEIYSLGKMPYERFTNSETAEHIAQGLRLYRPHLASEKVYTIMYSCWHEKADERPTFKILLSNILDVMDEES
Protocol: as §1, §2, §3

[5] = ec-50 values ranging from hundreds of micromolar to no inhibition (data not shown)

Chain of IGFR (Insulin-like growth factor receptor) protein tyrosine kinase (P08069 31-1367): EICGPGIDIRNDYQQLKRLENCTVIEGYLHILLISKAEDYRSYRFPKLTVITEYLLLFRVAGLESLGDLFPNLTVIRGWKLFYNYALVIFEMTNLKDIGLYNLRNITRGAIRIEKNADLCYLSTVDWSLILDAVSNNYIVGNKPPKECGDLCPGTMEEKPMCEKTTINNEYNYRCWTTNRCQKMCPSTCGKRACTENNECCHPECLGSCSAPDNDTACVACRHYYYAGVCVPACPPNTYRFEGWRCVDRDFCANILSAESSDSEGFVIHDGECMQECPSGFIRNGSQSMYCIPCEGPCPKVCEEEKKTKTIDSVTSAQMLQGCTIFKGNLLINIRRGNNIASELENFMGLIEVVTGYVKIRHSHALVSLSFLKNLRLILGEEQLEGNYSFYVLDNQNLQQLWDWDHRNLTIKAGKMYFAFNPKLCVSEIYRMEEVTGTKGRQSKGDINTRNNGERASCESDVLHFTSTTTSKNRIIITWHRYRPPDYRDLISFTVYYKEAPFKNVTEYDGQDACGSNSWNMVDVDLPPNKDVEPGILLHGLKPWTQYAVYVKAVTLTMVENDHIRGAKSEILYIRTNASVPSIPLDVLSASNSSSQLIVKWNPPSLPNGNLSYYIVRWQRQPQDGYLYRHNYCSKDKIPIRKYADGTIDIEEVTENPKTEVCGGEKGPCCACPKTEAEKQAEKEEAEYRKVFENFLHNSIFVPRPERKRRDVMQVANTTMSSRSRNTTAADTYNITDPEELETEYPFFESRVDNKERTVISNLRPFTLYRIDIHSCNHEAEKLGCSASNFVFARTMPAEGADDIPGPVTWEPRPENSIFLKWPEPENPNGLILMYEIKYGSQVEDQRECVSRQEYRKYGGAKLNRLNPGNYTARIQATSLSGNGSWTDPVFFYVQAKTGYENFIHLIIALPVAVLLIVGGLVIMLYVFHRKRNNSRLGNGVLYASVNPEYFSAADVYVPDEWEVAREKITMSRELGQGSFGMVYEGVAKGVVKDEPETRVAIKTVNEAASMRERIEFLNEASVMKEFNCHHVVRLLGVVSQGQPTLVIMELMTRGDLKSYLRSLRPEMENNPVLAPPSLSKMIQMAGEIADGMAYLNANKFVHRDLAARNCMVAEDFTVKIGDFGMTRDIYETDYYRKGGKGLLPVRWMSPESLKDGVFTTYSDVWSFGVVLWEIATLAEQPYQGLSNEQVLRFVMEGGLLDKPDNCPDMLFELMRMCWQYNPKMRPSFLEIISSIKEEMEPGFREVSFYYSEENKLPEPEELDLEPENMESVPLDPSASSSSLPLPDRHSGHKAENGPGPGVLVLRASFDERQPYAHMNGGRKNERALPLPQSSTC

Row | Inhibition of IGFR [1, 5] | EC50 [2] [µM] | Inhibition of LCK [3, 5] | Inhibition of BTK [4, 5] | IC50 ([1]; values for the four kinases range from 1971 μM to no inhibition, read-out: α-50 value for IGFR) [µM] | IC50 ([3]; values for the four kinases range from 1971 μM to no inhibition, read-out: α-50 value for LCK) [µM] | IC50 ([4]; values for the four kinases range from 1971 μM to no inhibition, read-out: α-50 value for BTK) [µM] | SMILES
1 | weak | 23.4 to 34.4 | weak | weak |  |  |  | NC1=NC(=O)C(=C2CCNC(=O)c3[nH]ccc32)N1 [DBH, 4-(2-amino-4-oxo-2-imidazolin-5-ylidene)-4,5,6,7-tetrahydropyrrolo(2,3-c) azepine-8-one]
2 |  | 11.6 |  |  | ≥ 1970 | ≥ 1970 | ≥ 1970 | NC1=NC(=O)C(=C2CCNC(=O)c3[nH]ccc32)N1 [DBH-2FB]
